Assay [1] has as its system A549 cells. Put plainly: Cell-based assay: anti-proliferative activity, Cell Counting Kit-8, 72 hours (A549). The following applies: 72 hours. In a few lines: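 A549 cells were seeded in 96-well plates and exposed to candidate inhibitors for 72 hours. Cell growth was then measured with Cell Counting Kit-8, and IC50 values were calculated from the resulting growth data.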
For orientation: Tetrazolium dyes change colour on reduction, which living cells bring about.

For assay [2], the target named is MELK (Homo sapiens, UniProt Q14680). Put plainly: Kinase assay: MELK activity, phosphorylation of FITC-labeled histone H3 peptide measured by IMAP fluorescence polarization. The assay is classed as biochemical. The following applies: read-out: IC50 (μM) (kinase assay). In a few lines: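 Substrate is FITC-labeled histone H3 peptide. Compounds come from a 12.5 mM DMSO stock, diluted so assay DMSO is 1%. The stop step adds threefold-volume progressive binding solution, followed by 0.5 h at room temperature and an FP read.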
Chain of MELK (Q14680 whole entry, looked up): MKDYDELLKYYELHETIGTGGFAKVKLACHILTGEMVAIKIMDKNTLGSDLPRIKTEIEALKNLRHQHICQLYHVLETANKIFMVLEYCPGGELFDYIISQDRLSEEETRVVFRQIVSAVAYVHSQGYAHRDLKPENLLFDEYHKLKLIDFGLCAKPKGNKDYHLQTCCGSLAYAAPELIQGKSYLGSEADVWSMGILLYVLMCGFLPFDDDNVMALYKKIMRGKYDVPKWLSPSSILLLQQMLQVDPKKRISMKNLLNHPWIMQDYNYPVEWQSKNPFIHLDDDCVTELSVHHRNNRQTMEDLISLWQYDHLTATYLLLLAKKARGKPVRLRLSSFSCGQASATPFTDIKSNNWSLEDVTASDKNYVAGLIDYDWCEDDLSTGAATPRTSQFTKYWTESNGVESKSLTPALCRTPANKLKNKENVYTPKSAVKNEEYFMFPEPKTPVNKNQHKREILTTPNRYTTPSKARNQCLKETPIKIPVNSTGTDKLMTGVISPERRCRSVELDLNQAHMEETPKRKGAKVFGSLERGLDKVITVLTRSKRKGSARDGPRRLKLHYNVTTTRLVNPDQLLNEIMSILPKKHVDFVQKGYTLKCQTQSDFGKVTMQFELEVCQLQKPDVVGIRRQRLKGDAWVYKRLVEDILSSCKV
In general terms: Polarisation of emitted light reports the rotation of a fluorescent probe.

Assay [3] deals with DU4475 cells. Put plainly: Cell-based assay: anti-proliferative activity, Cell Counting Kit-8, 72 hours (DU4475).
For assay [4], the system named is HT-1197 cells. Put plainly: Cell-based assay: anti-proliferative activity, Cell Counting Kit-8, 72 hours (HT-1197, negative control without MELK expression). The following applies: Homo sapiens, HT1197, 72 h, HT1197 cells (negative control, no MELK expression), 72 hours. The essentials: (§1)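 IC50 values come from CCK-8 growth measurements taken 72 hours post-treatment of plated cells with test compounds. Expression of MELK across the panel was assessed through immunoblot of unfractionated lysates.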

The test system of assay [5] is T47D cells. Put plainly: Cell-based assay: anti-proliferative activity, Cell Counting Kit-8, 72 hours (T47D). The following applies: Homo sapiens, T47D, 72 h. The essentials:
as §1

Read-outs that look alike come from different tables or passages of the source.

The term IC50 denotes the concentration that inhibits the measured activity by half. For the compound `CN(CCO)C[C@H]1CC[C@H](Nc2c(C(=O)C3CC3)cnc3ccc(-c4cc(F)c(O)c(Cl)c4)cc23)CC1` [Example 632, (6-(3-chloro-5-fluoro-4-hydroxyphenyl)-4-((trans-4-(((2-hydroxyethyl)(methyl)amino)methyl)cyclohexyl)amino)quinolin-3-yl)(cyclopropyl)methanone], the IC50 in assay [1] (Homo sapiens, A549, 72 h) worked out at 0.1 µM; in assay [2], 0.0031 µM; in assay [3] (Homo sapiens, DU-4475, 72 h), 0.069 µM; in assay [4], 0.72 µM; in assay [5] it was 0.069 µM.

Take `COc1cc(-c2ccc3ncc(C(=O)C4CC4)c(N[C@H]4CC[C@H](CN(C)CCO)CC4)c3c2)cc(Cl)c1O` [Example 633]: the IC50 in assay [1] (Homo sapiens, A549, 72 h) is 0.12 µM; in assay [2], 0.0016 µM; in assay [3] (Homo sapiens, DU-4475, 72 h), 0.15 µM; in assay [4], 2.3 µM; in assay [5], 0.21 µM.

For `CN(CCO)C[C@H]1CC[C@H](Nc2c(C(=O)C3CC3)cnc3ccc(-c4cc(Cl)c(O)c(Cl)c4)cc23)CC1` [Example 634], the IC50 is 0.095 µM in assay [1] (Homo sapiens, A549, 72 h); 0.0008 µM in assay [2]; 0.042 µM in assay [3] (Homo sapiens, DU-4475, 72 h); 0.75 µM in assay [4]; 0.099 µM in assay [5].

For `COc1cc(-c2ccc3ncc(C(=O)C4CC4)c(N[C@H]4CC[C@H](CN5CCN(C)CC5)CC4)c3c2)cc(Cl)c1O` [Example 637], the IC50 in assay [1] (Homo sapiens, A549, 72 h) came to 0.32 µM; in assay [2] it was 0.0035 µM; in assay [3] (Homo sapiens, DU-4475, 72 h), 0.67 µM; in assay [4], 2.9 µM; in assay [5], 0.68 µM.

Regarding `CC1(N)CCC(Nc2c(C(=O)C3CC3)cnc3ccc(-c4cc(Cl)c(O)c(Cl)c4)cc23)CC1` (stereo not shown) [Example 638, [4-(4-Amino-4-methylcyclohexylamino)-6-(3,5-dichloro-4-hydroxyphenyl)quinolin-3-yl](cyclopropyl)methanone], the IC50 in assay [1] (Homo sapiens, A549, 72 h) was 0.12 µM; in assay [2] it was 0.0034 µM; in assay [3] (Homo sapiens, DU-4475, 72 h) it was 0.022 µM; in assay [4], 0.67 µM; in assay [5], 0.1 µM.

`COc1cc(-c2ccc3ncc(C(=O)C4CC4)c(NC4CCC(C)(N)CC4)c3c2)cc(Cl)c1O` (stereo not shown) [Example 639, [4-(4-Amino-4-methylcyclohexylamino)-6-(3-chloro-4-hydroxy-5-methoxyphenyl)quinolin-3-yl](cyclopropyl)methanone]: the IC50 is 0.09 µM in assay [1] (Homo sapiens, A549, 72 h); 0.0012 µM in assay [2]; 0.062 µM in assay [3] (Homo sapiens, DU-4475, 72 h); 0.46 µM in assay [4]; 0.1 µM in assay [5].

Turning to `COc1cc(-c2ccc3ncc(C(=O)C(C)C)c(Nc4ccc(CN(C)C)cc4)c3c2)cc(Cl)c1O` [Example 640, 1-(6-(3-chloro-4-hydroxy-5-methoxyphenyl)-4-(4-((dimethylamino)methyl)phenylamino)quinolin-3-yl)-2-methylpropan-1-one], the IC50 in assay [1] (Homo sapiens, A549, 72 h) came to 0.61 µM; in assay [2], 0.027 µM; in assay [3] (Homo sapiens, DU-4475, 72 h) it was 0.52 µM; in assay [4] it was 0.82 µM; in assay [5] it was 0.54 µM.

Take `CC(C)C(=O)c1cnc2ccc(-c3cc(Cl)c(O)c(Cl)c3)cc2c1Nc1ccc(CN(C)C)cc1` [Example 641, 1-(6-(3,5-dichloro-4-hydroxyphenyl)-4-(4-((dimethylamino)methyl)phenylamino)quinolin-3-yl)-2-methylpropan-1-one]: the IC50 in assay [1] (Homo sapiens, A549, 72 h) turned out to be 0.23 µM; in assay [2], 0.0076 µM; in assay [3] (Homo sapiens, DU-4475, 72 h), 0.097 µM; in assay [4], 0.74 µM; in assay [5] it was 0.22 µM.

Turning to `O=C(c1cnc2ccc(-c3cc(F)c(O)c(Cl)c3)cc2c1NC1CCC(N2CC[C@@H](F)C2)CC1)C1CC1` (stereo partly drawn) [Example 642, (R)-(6-(3-chloro-5-fluoro-4-hydroxyphenyl)-4-(4-(3-fluoropyrrolidin-1-yl)cyclohexylamino)quinolin-3-yl)(cyclopropyl)methanone], the half-maximal inhibitory concentration (IC50) was determined as 0.2 µM in assay [1] (Homo sapiens, A549, 72 h); 0.0075 µM in assay [2]; 0.11 µM in assay [3] (Homo sapiens, DU-4475, 72 h); 0.76 µM in assay [4]; 0.17 µM in assay [5].

With `O=C(c1cnc2ccc(-c3cc(Cl)c(O)c(Cl)c3)cc2c1NC1CCC(N2CC[C@@H](F)C2)CC1)C1CC1` (stereo partly drawn) [Example 643, (R)-cyclopropyl(6-(3,5-dichloro-4-hydroxyphenyl)-4-(4-(3-fluoropyrrolidin-1-yl)cyclohexylamino)quinolin-3-yl)methanone], the half-maximal inhibitory concentration (IC50) in assay [1] (Homo sapiens, A549, 72 h) turned out to be 0.34 µM; in assay [2], 0.004 µM; in assay [3] (Homo sapiens, DU-4475, 72 h) it was 0.14 µM; in assay [4], 2.4 µM; in assay [5], 0.37 µM.

Consider `COc1cc(-c2ccc3ncc(C(=O)C4CC4)c(Nc4cnc(N5CCCC(N)C5)nc4)c3c2)cc(Cl)c1O` (stereo not shown) [Example 644, (4-(2-(3-aminopiperidin-1-yl)pyrimidin-5-ylamino)-6-(3-chloro-4-hydroxy-5-methoxyphenyl)quinolin-3-yl)(cyclopropyl)methanone], for which the IC50 is 0.23 µM in assay [1] (Homo sapiens, A549, 72 h); 0.0028 µM in assay [2]; 0.068 µM in assay [3] (Homo sapiens, DU-4475, 72 h); 2.4 µM in assay [4]; 0.047 µM in assay [5].

`COc1cc(-c2ccc3ncc(C(=O)C4CC4)c(NC4CCC(N5CC[C@@H](F)C5)CC4)c3c2)cc(Cl)c1O` (stereo partly drawn) [Example 645, (R)-(6-(3-chloro-4-hydroxy-5-methoxyphenyl)-4-(4-(3-fluoropyrrolidin-1-yl)cyclohexylamino)quinolin-3-yl)(cyclopropyl)methanone]: the IC50 was found to be 0.33 µM in assay [1] (Homo sapiens, A549, 72 h); 0.0062 µM in assay [2]; 0.29 µM in assay [3] (Homo sapiens, DU-4475, 72 h); 2.2 µM in assay [4]; 0.45 µM in assay [5].

For `N[C@H]1CCCN(c2ccc(Nc3c(C(=O)C4CC4)cnc4ccc(-c5cc(Cl)c(O)c(Cl)c5)cc34)cn2)C1` [Example 646, (S)-(4-(6-(3-aminopiperidin-1-yl)pyridin-3-ylamino)-6-(3,5-dichloro-4-hydroxyphenyl)quinolin-3-yl)(cyclopropyl)methanone], the IC50 was found to be 0.022 µM in assay [1]; 0.0011 µM in assay [2]; 0.0035 µM in assay [3]; 0.56 µM in assay [4]; 0.02 µM in assay [5].

On to `N[C@H]1CCCN(c2ccc(Nc3c(C(=O)C4CC4)cnc4ccc(-c5cc(F)c(O)c(Cl)c5)cc34)cn2)C1` [Example 648, (S)-(4-(6-(3-aminopiperidin-1-yl)pyridin-3-ylamino)-6-(3-chloro-5-fluoro-4-hydroxyphenyl)quinolin-3-yl)(cyclopropyl)methanone], for which the IC50 in assay [1] (Homo sapiens, A549, 72 h) is 0.013 µM; in assay [2], 0.0019 µM; in assay [3] (Homo sapiens, DU-4475, 72 h), 0.0046 µM; in assay [4], 0.28 µM; in assay [5], 0.0095 µM.

Turning to `COc1cc(-c2ccc3ncc(C(=O)C4CC4)c(Nc4ccc(N5CCC[C@@H](N)C5)nc4)c3c2)cc(Cl)c1O` [Example 649, (R)-(4-(6-(3-aminopiperidin-1-yl)pyridin-3-ylamino)-6-(3-chloro-4-hydroxy-5-methoxyphenyl)quinolin-3-yl)(cyclopropyl)methanone], the IC50 in assay [1] (Homo sapiens, A549, 72 h) is 0.15 µM; in assay [2] it was 0.0021 µM; in assay [3] (Homo sapiens, DU-4475, 72 h), 0.077 µM; in assay [4], 1.4 µM; in assay [5] it was 0.087 µM.

For `N[C@@H]1CCCN(c2ccc(Nc3c(C(=O)C4CC4)cnc4ccc(-c5cc(Cl)c(O)c(Cl)c5)cc34)cn2)C1` [Example 650, (R)-(4-(6-(3-aminopiperidin-1-yl)pyridin-3-ylamino)-6-(3,5-dichloro-4-hydroxyphenyl)quinolin-3-yl)(cyclopropyl)methanone], the IC50 in assay [1] (Homo sapiens, A549, 72 h) is 0.015 µM; in assay [2] it was 0.001 µM; in assay [3] (Homo sapiens, DU-4475, 72 h) it was 0.0072 µM; in assay [4], 0.32 µM; in assay [5], 0.0099 µM.

In the case of `N[C@@H]1CCCN(c2ccc(Nc3c(C(=O)C4CC4)cnc4ccc(-c5cc(F)c(O)c(Cl)c5)cc34)cn2)C1` [Example 651, (R)-(4-(6-(3-aminopiperidin-1-yl)pyridin-3-ylamino)-6-(3-chloro-5-fluoro-4-hydroxyphenyl)quinolin-3-yl)(cyclopropyl)methanone], the IC50 in assay [1] (Homo sapiens, A549, 72 h) is 0.0075 µM; in assay [2], 0.00076 µM; in assay [3] (Homo sapiens, DU-4475, 72 h) it was 0.0071 µM; in assay [4], 0.12 µM; in assay [5], 0.0054 µM.

In the case of `CN(C)C[C@]1(O)CC[C@@H](Nc2c(C(=O)C3CC3)cnc3ccc(-c4cc(Cl)c(O)c(Cl)c4)cc23)CC1` [Example 652, cyclopropyl(6-(3,5-dichloro-4-hydroxyphenyl)-4-((cis-4-((dimethylamino)methyl)-4-hydroxycyclohexyl)amino)quinolin-3-yl)methanone], the IC50 in assay [1] (Homo sapiens, A549, 72 h) was 0.15 µM; in assay [2], 0.0011 µM; in assay [3] (Homo sapiens, DU-4475, 72 h) it was 0.051 µM; in assay [4], 1.4 µM; in assay [5] it was 0.15 µM.

As for `CC(=O)c1cnc2ccc(-c3cc(Cl)c(O)c(Cl)c3)cc2c1Nc1ccc(CN2CCN(C)CC2)cc1` [Example 654, 1-(6-(3,5-dichloro-4-hydroxyphenyl)-4-(4-((4-methylpiperazin-1-yl)methyl)phenylamino)quinolin-3-yl)ethanone], the IC50 in assay [1] (Homo sapiens, A549, 72 h) is 0.19 µM; in assay [2], 0.0082 µM; in assay [3] (Homo sapiens, DU-4475, 72 h), 0.11 µM; in assay [4], 8.7 µM; in assay [5] it was 0.091 µM.

On to `CC(=O)c1cnc2ccc(-c3cc(F)c(O)c(Cl)c3)cc2c1Nc1ccc(CN2CCN(C)CC2)cc1` [Example 656, 1-(6-(3-chloro-5-fluoro-4-hydroxyphenyl)-4-(4-((4-methylpiperazin-1-yl)methyl)phenylamino)quinolin-3-yl)ethanone], for which the IC50 was 0.41 µM in assay [1] (Homo sapiens, A549, 72 h); 0.033 µM in assay [2]; 0.27 µM in assay [3] (Homo sapiens, DU-4475, 72 h); 6.1 µM in assay [4]; 0.19 µM in assay [5].

The values are drawn from US9120749B2, “Quinoline derivatives and MELK inhibitors containing the same” (ONCOTHERAPY SCIENCE, INC., priority 2010, dated 2015).
